Several values for one entry are separate records, joined by “and”; a condition that tells them apart may be missing. Identical values can stand only once. Inconclusive results and toxic doses are left out. Non-standard residues stand in square brackets, D forms with d. Residues, ends and D or L forms follow the SMILES beside them. ξ: configuration not given here. *: point of attachment. ξF = NC(Cc1ccccc1)C(=O)O; ClAc = O=C(CCl)*
Tested on: BDF1 mice, P388 leukemia ip, median survival T/C
Assay: NCI In Vivo Anticancer Drug Screen. Data for tumor model P388 Leukemia (intraperitoneal) in B6D2F1 (BDF1) mice
Details: endpoint: median survival time, higher = longer survival
Summary of the method: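 Steps: implant the tumour, treat one group with compound and another with vehicle, record survival, then divide treated by control.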

[1] = dose: 50.0 mg/kg/injection, schedule: Q01DX009 (ip), vehicle: saline with Tween-80
[2] = dose: 100.0 mg/kg/injection, schedule: Q01DX009 (ip), vehicle: saline with Tween-80
[3] = dose: 200.0 mg/kg/injection, schedule: Q01DX009 (ip), vehicle: saline with Tween-80
[4] = dose: 400.0 mg/kg/injection, schedule: Q04DX002 (ip), vehicle: saline with Tween-80
[5] = dose: 50.0 mg/kg/injection, schedule: Q04DX003 (ip), vehicle: saline with Tween-80
[6] = dose: 100.0 mg/kg/injection, schedule: Q04DX003 (ip), vehicle: saline with Tween-80
[7] = dose: 200.0 mg/kg/injection, schedule: Q04DX003 (ip), vehicle: saline with Tween-80
[8] = dose: 100.0 mg/kg/injection, schedule: Q01DX009 (ip), vehicle: Klucel (hydroxypropylcellulose) (HPC)
[9] = dose: 200.0 mg/kg/injection, schedule: Q01DX009 (ip), vehicle: Klucel (hydroxypropylcellulose) (HPC)
[10] = dose: 12.5 mg/kg/injection, schedule: Q01DX009 (ip), vehicle: saline with Tween-80
[11] = dose: 25.0 mg/kg/injection, schedule: Q01DX009 (ip), vehicle: saline with Tween-80
[12] = dose: 25.0 mg/kg/injection, schedule: Q04DX003 (ip), vehicle: saline
[13] = dose: 50.0 mg/kg/injection, schedule: Q04DX003 (ip), vehicle: saline
[14] = dose: 100.0 mg/kg/injection, schedule: Q04DX003 (ip), vehicle: saline
[15] = dose: 400.0 mg/kg/injection, schedule: Q04DX003 (ip), vehicle: saline with Tween-80
[16] = dose: 100.0 mg/kg/injection, schedule: Q04DX003 (ip), vehicle: Klucel (hydroxypropylcellulose) (HPC)
[17] = dose: 200.0 mg/kg/injection, schedule: Q04DX003 (ip), vehicle: Klucel (hydroxypropylcellulose) (HPC)
[18] = dose: 400.0 mg/kg/injection, schedule: Q01DX009 (ip), vehicle: Klucel (hydroxypropylcellulose) (HPC)
[19] = dose: 400.0 mg/kg/injection, schedule: Q04DX003 (ip), vehicle: Klucel (hydroxypropylcellulose) (HPC)

## COc1ccc(/C=C(\C)[N+](=O)[O-])cc1OC
dose: 3.13 mg/kg/injection, schedule: Q01DX009 (ip), vehicle: other
  T/C: 116 % of control
dose: 6.25 mg/kg/injection, schedule: Q01DX009 (ip), vehicle: other
  T/C: 116 % of control
dose: 12.5 mg/kg/injection, schedule: Q01DX009 (ip), vehicle: other
  T/C: 110 % of control
dose: 25.0 mg/kg/injection, schedule: Q01DX009 (ip), vehicle: other
  T/C: 118 % of control

## COc1cc(/C=C2\SC(=S)N(CCCN3CCOCC3)C2=O)ccc1O
dose: 12.5 mg/kg/injection, schedule: Q01DX009 (ip), vehicle: suspension in saline
  T/C: 86 % of control
dose: 25.0 mg/kg/injection, schedule: Q01DX009 (ip), vehicle: suspension in saline
  T/C: 101 % of control
dose: 50.0 mg/kg/injection, schedule: Q01DX009 (ip), vehicle: suspension in saline
  T/C: 99 % of control

## CCN(CC)Cc1cc(Nc2ccnc3cc(Cl)ccc23)cc(-c2ccc(Cl)cc2)c1O
[1]
  T/C: 110 % of control
[2]
  T/C: 102 % of control
[3]
  T/C: 102 % of control

## O=C(Nc1nncs1)c1cccs1
dose: 50.0 mg/kg/injection, schedule: Q04DX002 (ip), vehicle: saline with Tween-80
  T/C: 109 % of control
dose: 100.0 mg/kg/injection, schedule: Q04DX002 (ip), vehicle: saline with Tween-80
  T/C: 93 % of control
dose: 600.0 mg/kg/injection, schedule: Q04DX002 (ip), vehicle: saline with Tween-80
  T/C: 190 % of control

## COc1ccc(/C=C2\C(=O)C(c3ccccc3)N(c3ccccc3)C2=O)cc1 (centres undefined)
[4]
  T/C: 88 % of control

## CCc1ccc(OS(=O)(=O)c2ccc([N+](=O)[O-])cc2)cc1
dose: 75.0 mg/kg/injection, schedule: Q01DX001 (ip), vehicle: saline with Tween-80
  T/C: 104 % of control
dose: 150.0 mg/kg/injection, schedule: Q01DX001 (ip), vehicle: saline with Tween-80
  T/C: 100 % of control
dose: 300.0 mg/kg/injection, schedule: Q01DX001 (ip), vehicle: saline with Tween-80
  T/C: 100 % of control

## CCN(CC)c1ccc(NC(=O)NC(C)C)cc1
[5]
  T/C: 90 % of control
[6]
  T/C: 90 % of control
[7]
  T/C: 86 % of control

## Cc1c(NC(=O)Nc2ccccc2F)c(=O)n(-c2ccccc2)n1C
dose: 50.0 mg/kg/injection, schedule: Q01DX009 (ip), vehicle: Klucel (hydroxypropylcellulose) (HPC)
  T/C: 100 % of control
[8]
  T/C: 90 % of control
[9]
  T/C: 95 % of control

## NC1=CC(=O)c2ccccc2C1=O
dose: 6.25 mg/kg/injection, schedule: Q01DX009 (ip), vehicle: saline with Tween-80
  T/C: 101 % of control
[10]
  T/C: 113 % of control
[11]
  T/C: 103 % of control
[1]
  T/C: 103 % of control

## O=CC(Cl)Cl
[12]
  T/C: 100 % of control
[13]
  T/C: 95 % of control
[14]
  T/C: 100 % of control

## CCCSCCSCCC
dose: 25.0 mg/kg/injection, schedule: Q04DX003 (ip), vehicle: saline with Tween-80
  T/C: 100 % of control
[5]
  T/C: 109 % of control
[6]
  T/C: 113 % of control

## Nc1nc2c(ccc3ccccc32)s1
[11]
  T/C: 117 % of control
[1]
  T/C: 117 % of control
[2]
  T/C: 122 % of control

## NC(=O)OCCCCCl
dose: 50.0 mg/kg/injection, schedule: Q01DX009 (ip), vehicle: saline
  T/C: 110 % of control
dose: 100.0 mg/kg/injection, schedule: Q01DX009 (ip), vehicle: saline
  T/C: 107 % of control
dose: 200.0 mg/kg/injection, schedule: Q01DX009 (ip), vehicle: saline
  T/C: 100 % of control

## O=C(CCl)NCC(=O)NC(Cc1ccccc1)C(=O)O (centres undefined) (ClAc-Gly-[ξF]-OH)
[5]
  T/C: 109 % of control
[6]
  T/C: 109 % of control
[7]
  T/C: 90 % of control

## Cc1cc(Cl)ccc1NC(=O)N1c2ccccc2SC12CCCC2
[1]
  T/C: 97 % of control
[2]
  T/C: 91 % of control
[3]
  T/C: 104 % of control

## CC12CCC3C(CCC4CC5(CCC43C)CO5)C1CCC2=O (centres undefined)
[6]
  T/C: 103 % of control
[7]
  T/C: 103 % of control
[15]
  T/C: 98 % of control

## c1ccc(NNC(c2ccccc2)(c2ccccc2)c2ccccc2)cc1
[8]
  T/C: 90 % of control
[16]
  T/C: 104 % of control
[9]
  T/C: 100 % of control
[17]
  T/C: 91 % of control
[18]
  T/C: 90 % of control
[19]
  T/C: 95 % of control

## Nc1nc(SCc2ccccc2)c2ncn(C3CCCC3)c2n1
[6]
  T/C: 100 % of control
[7]
  T/C: 100 % of control
[15]
  T/C: 100 % of control

## O=C(c1ccc(Cl)cc1)c1cccc[n+]1Cc1ccccc1
dose: 0.37 mg/kg/injection, schedule: Q01DX009 (ip), vehicle: Klucel (hydroxypropylcellulose) (HPC)
  T/C: 100 % of control
dose: 18.75 mg/kg/injection, schedule: Q01DX009 (ip), vehicle: Klucel (hydroxypropylcellulose) (HPC)
  T/C: 104 % of control
dose: 28.12 mg/kg/injection, schedule: Q04DX003 (ip), vehicle: Klucel (hydroxypropylcellulose) (HPC)
  T/C: 100 % of control
dose: 37.5 mg/kg/injection, schedule: Q01DX009 (ip), vehicle: Klucel (hydroxypropylcellulose) (HPC)
  T/C: 109 % of control
dose: 56.25 mg/kg/injection, schedule: Q04DX003 (ip), vehicle: Klucel (hydroxypropylcellulose) (HPC)
  T/C: 95 % of control
dose: 112.5 mg/kg/injection, schedule: Q04DX003 (ip), vehicle: Klucel (hydroxypropylcellulose) (HPC)
  T/C: 100 % of control

## CN1CC=C(N2CCOCC2)CC1
[12]
  T/C: 120 % of control
[13]
  T/C: 120 % of control
[14]
  T/C: 120 % of control

## Nc1nnc[se]1
[10]
  T/C: 116 % of control
dose: 12.5 mg/kg/injection, schedule: Q01DX009 (ip), vehicle: saline
  T/C: 96 % of control
[11]
  T/C: 151 % of control
dose: 25.0 mg/kg/injection, schedule: Q01DX009 (ip), vehicle: saline
  T/C: 122 % of control
[1]
  T/C: 164 % of control and 178 % of control

## CCCCCCCC(=O)[O][Hg][CH2]C1COC([CH2][Hg][O]C(=O)CCCCCCC)CO1 (centres undefined)
dose: 12.5 mg/kg/injection, schedule: Q01DX009 (ip), vehicle: saline sonified
  T/C: 110 % of control
dose: 50.0 mg/kg/injection, schedule: Q04DX003 (ip), vehicle: saline sonified
  T/C: 116 % of control

## O=C1OCC2SC(c3ccccc3)NC12 (centres undefined)
dose: 100.0 mg/kg/injection, schedule: Q01DX001 (ip), vehicle: saline sonified
  T/C: 95 % of control
dose: 200.0 mg/kg/injection, schedule: Q01DX001 (ip), vehicle: saline sonified
  T/C: 113 % of control
dose: 400.0 mg/kg/injection, schedule: Q01DX001 (ip), vehicle: saline sonified
  T/C: 95 % of control

## CSCCCNC(=O)c1csc(-c2csc(CCNC(=O)C(F)(F)F)n2)n1
[1]
  T/C: 103 % of control
[2]
  T/C: 114 % of control
[3]
  T/C: 87 % of control

## CN1CCCC1CCNc1nc(C(Cl)(Cl)Cl)nc2ccc(Cl)cc12 (centres undefined)
[11]
  T/C: 100 % of control
[1]
  T/C: 100 % of control
[5]
  T/C: 104 % of control
[6]
  T/C: 104 % of control

## CCCCCCCCCC(=O)NC(C)C(O)c1ccccc1 (centres undefined)
[1]
  T/C: 109 % of control
[2]
  T/C: 100 % of control
[3]
  T/C: 89 % of control

## O=C(NC(=O)c1c(F)cccc1F)Nc1nc2cc(Cl)ccc2o1
[11]
  T/C: 96 % of control
[1]
  T/C: 96 % of control
[2]
  T/C: 90 % of control

## CC(=O)C1(O)Cc2c(O)c3c(c(O)c2C(OC2CC(N)C(O)C(C)O2)C1)C(=O)c1ccccc1C3=O (centres undefined)
dose: 324.0 micrograms/kg/injection, schedule: Q04DX003 (ip), vehicle: water
  T/C: 177 % of control
dose: 540.0 micrograms/kg/injection, schedule: Q04DX003 (ip), vehicle: water
  T/C: 220 % of control
dose: 900.0 micrograms/kg/injection, schedule: Q04DX003 (ip), vehicle: water
  T/C: 116 % of control
dose: 1500.0 micrograms/kg/injection, schedule: Q04DX003 (ip), vehicle: water
  T/C: 90 % of control

## OC1c2ccccc2-c2ccccc2C1O (centres undefined)
dose: 200.0 mg/kg/injection, schedule: Q04DX002 (ip), vehicle: saline with Tween-80
  T/C: 153 % of control
[4]
  T/C: 155 % of control

## COc1ccc(CC2c3ccccc3CC[N+]2(C)C)cc1Oc1ccc(CC2c3ccccc3CC[N+]2(C)C)cc1 (centres undefined)
dose: 0.39 mg/kg/injection, schedule: Q04DX003 (ip), vehicle: saline
  T/C: 98 % of control
dose: 0.78 mg/kg/injection, schedule: Q04DX003 (ip), vehicle: saline
  T/C: 105 % of control
dose: 1.56 mg/kg/injection, schedule: Q04DX003 (ip), vehicle: saline with Tween-80
  T/C: 104 % of control

## CC1(C)CC(=O)C2OC2(C)C1 (centres undefined)
[8]
  T/C: 100 % of control
[16]
  T/C: 104 % of control
[9]
  T/C: 90 % of control
[17]
  T/C: 95 % of control
[18]
  T/C: 109 % of control
[19]
  T/C: 108 % of control

Source: PubChem BioAssay AID328 (DTP/NCI, 2004)
